Source: patent publication US9415046B2, “Compositions and methods for inhibiting inflammation from and rejection of biomaterials and other methods” (YALE UNIVERSITY, priority 2009, dated 2016)
“Also recorded” adds a separate entry of the source.

Key:
Assay type in all cases: in vivo
C57BL/6 mice = experiment: Foreign body reaction to 150 micron polystyrene beads injected into the abdominal cavity; details: 24 hours, FIG. 2
Protocol: (§1) Two models of the foreign body reaction were tested. In the first model, injection of 150 micron polystyrene beads into the abdominal cavity of C57BL/6 was followed by analysis of cellular infiltrate 24 hours later. In the second model, implantation of a 6 mm disc of silicone subcutaneously was followed by analysis of the foreign body reaction about one month later. The above two models were performed on mice on normal drinking water or with aspirin (60 mg/ml). […] The experiment evidenced that the cellular infiltrate at 24 hours was comprised principally of immune cells (neutrophils and macrophages).

wild-type mice [1] = experiment: Foreign body reaction to subcutaneously implanted 6 mm silicone disc; details: silicone implant, one month, aspirin 60 mg/ml in drinking water, P<0.05 compared to no ASA, FIG. 7
Protocol: as §1, with “macrophages). […] A 6 mm disc of silicone was implanted subcutaneously in experimental mice (see above), followed by analysis of the foreign body reaction around one month later. The mice were placed on normal drinking water or water with aspirin at a concentration of 60 mg/ml. […] Wild-type mice were implanted with a silicone capsule on the side of the muscle and on the side of the skin. The mice were either given regular drinking water or drinking water containing 60 mg/ml aspirin. After one month, the mice were then analyzed to determine if there was an impact on the foreign body reaction which occurred as a consequence of implanting the silicone capsulate.” for “macrophages).”

wild-type mice [2] = experiment: APAP (acetaminophen) induced liver inflammation, liver injury and mortality; details: by down regulation of pro-inflammatory cytokines
Protocol: APAP (Sigma, Mo.) solution was made fresh for each experiment in PBS at 20 mg/ml and heated in a water bath to 55° C. to dissolve. APAP was dosed at 500 mg/kg and injected I.P after 15 hrs of starvation. Animals were euthanized by ketamine/xylazine injection at 12 hours for collection of serum, isolation of liver lymphocytes or collection of liver tissue for histology, or they were observed every four hours for 72 hours until they reached criteria for euthanasia (lack of response to stimuli or lack of righting reflex). FIGS. 3A and B show less hemorrhage and cell death in the livers of mice lacking TLR9 compared to wild-type and FIGS. 3C and D show a similar affect of TLR7. […] The data was generated by a single ip injection of APAP at a dose of 500 mg/kg. Data in Figures A to D was generated 12 hours after APAP and E and F is over a 3 day period.
Data was generated 12 hours after injection of APAP. […] The data was generated over 72 hours (3 days). […] Data was generated from 23 hours after injection of APAP.

## CC(=O)Oc1ccccc1C(=O)O [aspirin, acetylsalicylic acid]
C57BL/6 mice; continuous aspirin in drinking water (60 mg/ml)
  foreign body reaction to polystyrene beads (number of cells in cellular infiltrate): substantially diminished; also recorded: significantly reduced
C57BL/6 mice; continuous aspirin
  composition of the cellular infiltrate (neutrophils and macrophages): not significantly altered
wild-type mice [1]
  thickness of the foreign body reaction capsule on the side of the muscle and on the side of the skin: significant reduction
wild-type mice [2]
  effect on acetaminophen-induced liver injury: protective effect
